Results: publication PMC2580772, “The dual transcriptional regulator CysR in Corynebacterium glutamicum ATCC 13032 controls a subset of genes of the McbR regulon in response to the availability of sulphide acceptor molecules” (BMC Genomics, 2008)

Target: T1, CysR (Corynebacterium glutamicum, UniProt Q8NU28)
T1 construct: gene Cgl0121; expressed in E. coli ER2566 from pTYB1 (pCR050)
T1 sequence (Q8NU28 1-381): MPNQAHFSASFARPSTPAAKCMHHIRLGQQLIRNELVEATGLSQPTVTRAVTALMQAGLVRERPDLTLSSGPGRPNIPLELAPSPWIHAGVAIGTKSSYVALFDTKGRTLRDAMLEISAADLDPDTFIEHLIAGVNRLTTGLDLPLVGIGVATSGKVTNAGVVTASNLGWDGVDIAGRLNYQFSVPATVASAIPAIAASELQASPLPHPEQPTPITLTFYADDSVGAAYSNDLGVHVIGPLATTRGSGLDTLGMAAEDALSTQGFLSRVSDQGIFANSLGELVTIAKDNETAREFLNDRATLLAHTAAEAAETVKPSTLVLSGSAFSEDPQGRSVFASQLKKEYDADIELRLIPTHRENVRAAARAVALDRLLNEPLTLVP
Assay: EMSA, effector-dependent DNA binding
Conditions: 10 mM effector; Cy3-labelled 523 bp cysI-fpr2 DNA; 1,000 times molar excess of protein; pH 7.5; room temperature; co-activator

## CC(=O)OCC[C@H](N)C(=O)O [OAH, O-acetyl-L-homoserine]
  EMSA, effector-dependent DNA binding: CysR can only bind if either OAS or OAH is added to the assay

## CC(=O)OC[C@H](N)C(=O)O [OAS, O-acetyl-L-serine]
  EMSA, effector-dependent DNA binding: CysR can only bind if either OAS or OAH is added to the assay
